# Test results published in patent publication US12691107B2, “Methods for the treatment and prevention of lung infections caused by gram-positive bacteria, fungus, or virus by administration of tafenoquine” (priority 2020, dated 2026).
# Read-outs that look alike come from different tables or passages of the source.
# Tests used:
# [1] = tested on: Candida guilliermondii; test: Antifungal MIC (RPMI-1640 microdilution); type: cell-based; conditions: Meyerozyma guilliermondii
# [2] = tested on: Apophysomyces sp.; test: Antifungal MIC (RPMI-1640 microdilution); type: cell-based
# [3] = tested on: K. pneumoniae; test: Antibacterial MIC (broth microdilution); type: cell-based; conditions: Klebsiella pneumoniae
# [4] = tested on: Candida parapsilosis; test: Antifungal MIC (RPMI-1640 microdilution); type: cell-based; conditions: for MIC50 / MIC: Lodderomyces parapsilosis
# [5] = tested on: Sporothrix sp.; test: Antifungal MIC (RPMI-1640 microdilution); type: cell-based
# [6] = tested on: Aspergillus fumigatus; test: Antifungal MIC (RPMI-1640 microdilution); type: cell-based
# [7] = tested on: Enterococcus faecalis; test: Antibacterial MIC (broth microdilution); type: cell-based
# [8] = tested on: E. coli; test: Antibacterial MIC (broth microdilution); type: cell-based
# Method: Growth Medium—Cation adjusted Mueller-Hinton broth was used as the test medium. Broth for panel preparation was prepared from commercial dehydrated medium (Difco formulation, BD Diagnostics, catalog number 275730).
# Dilution of Investigational Agents—Polystyrene test tubes were used to prepare the drug dilutions and sterile U-shaped 96-well polystyrene microtiter trays were used for performing the MIC assays. Stock solutions of the investigational agents were prepared at concentrations 100-times the highest concentration to be tested (6400-1.25 μg/ml) using dimethyl sulfoxide. Aliquots of the stock solutions were dispensed into polypropylene vials and stored at −20° C. Further dilutions (1:50) were made in the culture medium (cation-adjusted Mueller-Hinton medium).
# After the dilutions of the working 2-fold investigational antibacterial solutions were prepared, 50 μL of each concentration was transferred into rows of the first 10 wells of each 12-well column of the U-shaped disposable 96-well microtiter trays using a multichannel pipettor. The 11th well in each row served as the sterility control, and the 12th well contained only culture medium to serve as the growth control for each isolate. In like manner, the control drug for the organism being tested was prepared in a separate 96 well panel exactly as described above. A 50 μL volume of the standardized inoculum suspension of each test isolate was prepared in culture medium to directly inoculate each test well of the drug containing microtiter tray.
# Inoculum Preparation—Colonies of each strain generated on sheep blood agar plates with overnight growth at 35° C. in ambient air were used to directly prepare a suspension equivalent in density to the 0.5 McFarland opacity standard. The exact turbidity of each suspension was determined using a desktop portable photometer. For panels containing 2× drug concentrations, a 1:100 dilution of the McFarland organism suspension was prepared in cation-adjusted Mueller-Hinton broth and 50 μL aliquots of each test (and control) strain was added to each well of the designated rows of the microtiter trays using a multichannel pipettor. The target inoculum concentration was 5×10^5 CFU/ml in each well.
# Trays were removed and each well were inspected for evidence of growth (turbidity). The MIC was defined as the lowest concentration of the investigational agent and the control drug that prevents visibly discernible growth in the test wells.
# [9] = tested on: P. aeruginosa; test: Antibacterial MIC (broth microdilution); type: cell-based; conditions: Pseudomonas aeruginosa
# [10] = tested on: Cryptococcus neoformans; test: Antifungal MIC (RPMI-1640 microdilution); type: cell-based
# [11] = tested on: Candida auris; test: Antifungal MIC (RPMI-1640 microdilution); type: cell-based
# [12] = tested on: Candida glabrata; test: Antifungal MIC (RPMI-1640 microdilution); type: cell-based
# [13] = tested on: A. baumannii; test: Antibacterial MIC (broth microdilution); type: cell-based; conditions: Acinetobacter baumannii
# [14] = tested on: P. falciparum; conditions: seven strains, three repeat assays; cited from earlier work
# [15] = tested on: HCMV strain AD169; test: CPE assay for HCMV in HFF cells; type: cell-based; conditions: Human betaherpesvirus 5, AD169
# [16] = tested on: Babesia; conditions: mice; cited from earlier work
# [17] = tested on: MCMV strain Smith; test: MCMV qPCR assay in mouse embryo fibroblast cells; type: cell-based; conditions: 168 h, 7 d
# [18] = Plasma levels of tafenoquine in humans; conditions: human, in vivo
# [19] = read-out: MIC 100% inhibition, isolate AF293
smiles,measurement,setting,value
COc1cc(C)c2c(Oc3cccc(C(F)(F)F)c3)c(OC)cc(NC(C)CCCN)c2n1.O=C(O)CCC(=O)O (stereo not shown) [Tafenoquine Succinate],MIC50,"[1]; read-out: MIC 50% inhibition, isolate Cgui1",2 µg/mL
same,MIC50,"[1]; read-out: MIC 50% inhibition, isolate Cgui2",2 µg/mL
same,MIC50,"[1]; read-out: MIC 50% inhibition, isolate Cgui3",4 µg/mL
same,MIC,"[1]; read-out: MIC 100% inhibition, isolate Cgui1",4 µg/mL
same,MIC,"[1]; read-out: MIC 100% inhibition, isolate Cgui2",2 µg/mL
same,MIC,"[1]; read-out: MIC 100% inhibition, isolate Cgui3",4 µg/mL
same,MIC50,"[2]; read-out: MIC 50% inhibition, isolate Apo1",8 µg/mL
same,MIC50,"[2]; read-out: MIC 50% inhibition, isolate Apo2",2 µg/mL
same,MIC50,"[2]; read-out: MIC 50% inhibition, isolate Apo3",16 µg/mL
same,MIC,"[2]; read-out: MIC 100% inhibition, isolate Apo1",8 µg/mL
same,MIC,"[2]; read-out: MIC 100% inhibition, isolate Apo2",4 µg/mL
same,MIC,"[2]; read-out: MIC 100% inhibition, isolate Apo3",32 µg/mL
same,MIC,"[3]; ATCC70063, isolate ATCC 70063",> 64 µg/mL
same,MIC,[3]; isolate AR-97,> 64 µg/mL
same,MIC,[3]; isolate AR-113,> 64 µg/mL
same,MIC50,"[4]; ATCC22019, read-out: MIC 50% inhibition, isolate ATCC 22019",4 µg/mL
same,MIC,"[4]; ATCC22019, read-out: MIC 100% inhibition, isolate ATCC 22019",4 µg/mL
same,MIC50,"[4]; read-out: MIC 50% inhibition, isolate CP1",4 µg/mL
same,MIC,"[4]; read-out: MIC 100% inhibition, isolate CP1",4 µg/mL
same,MIC,"[4]; read-out: MIC 100% inhibition, isolate CP2",4 µg/mL
same,MIC,"[4]; read-out: MIC 100% inhibition, isolate CP3",8 µg/mL
same,MIC 50% inhibition,[4]; isolate CP2,4 µg/mL
same,MIC 50% inhibition,[4]; isolate CP3,4 µg/mL
same,MIC50,"[5]; read-out: MIC 50% inhibition, isolate Sporo1",2 µg/mL
same,MIC50,"[5]; read-out: MIC 50% inhibition, isolate Sporo2",1 µg/mL
same,MIC50,"[5]; read-out: MIC 50% inhibition, isolate Sporo3",2 µg/mL
same,MIC,"[5]; read-out: MIC 100% inhibition, isolate Sporo1",4 µg/mL
same,MIC,"[5]; read-out: MIC 100% inhibition, isolate Sporo2",2 µg/mL
same,MIC,"[5]; read-out: MIC 100% inhibition, isolate Sporo3",4 µg/mL
same,MIC50,"[6]; read-out: MIC 50% inhibition, isolate AF293",8 µg/mL
same,MIC50,"[6]; read-out: MIC 50% inhibition, isolate D115-106",4 µg/mL
same,MIC50,"[6]; read-out: MIC 50% inhibition, isolate D115-116",4 µg/mL
same,MIC,[6]; [19],16 µg/mL
same,MIC,"[6]; read-out: MIC 100% inhibition, isolate D115-106",8 µg/mL
same,MIC,"[6]; read-out: MIC 100% inhibition, isolate D115-116",4 µg/mL
same,MIC,"[7]; ATCC29212, isolate ATCC 29212",8 µg/mL
same,MIC,[7]; isolate 1768,8 µg/mL
same,MIC,"[8]; Escherichia coli, ATCC25922, isolate ATCC 25922, read-out: MIC",> 64 µg/mL
same,MIC,"[8]; Escherichia coli, isolate J4243 (MO72), read-out: MIC",> 64 µg/mL
same,MIC,[8]; isolate J4244 (JJ1886),>64 µg/mL
same,MIC,"[9]; ATCC27853, isolate ATCC 27853",> 64 µg/mL
same,MIC,[9]; isolate AR-230,> 64 µg/mL
same,MIC,[9]; isolate J4242,> 64 µg/mL
same,MIC50,"[10]; Cryptococcus neoformans, read-out: MIC 50% inhibition, isolate CN3",4 µg/mL
same,MIC50,"[10]; Cryptococcus neoformans, read-out: MIC 50% inhibition, isolate H99",4 µg/mL
same,MIC50,"[10]; Cryptococcus neoformans, read-out: MIC 50% inhibition, isolate USC1597",4 µg/mL
same,MIC,"[10]; Cryptococcus neoformans, read-out: MIC 100% inhibition, isolate USC1597",4 µg/mL
same,MIC 100% inhibition,[10]; isolate CN3,4 µg/mL
same,MIC 100% inhibition,[10]; isolate H99,4 µg/mL
same,MIC50,"[11]; Candidozyma auris, read-out: MIC 50% inhibition, isolate DI17-46",4 µg/mL
same,MIC50,"[11]; Candidozyma auris, read-out: MIC 50% inhibition, isolate DI17-47",4 µg/mL
same,MIC50,"[11]; Candidozyma auris, read-out: MIC 50% inhibition, isolate DI17-48",2 µg/mL
same,MIC,"[11]; Candidozyma auris, read-out: MIC 100% inhibition, isolate DI17-47",4 µg/mL
same,MIC 100% inhibition,[11]; isolate DI17-46,4 µg/mL
same,MIC 100% inhibition,[11]; isolate DI17-48,4 µg/mL
same,MIC50,"[12]; Nakaseomyces glabratus, read-out: MIC 50% inhibition, isolate 05-62",8 µg/mL
same,MIC50,"[12]; Nakaseomyces glabratus, read-out: MIC 50% inhibition, isolate 05-761",8 µg/mL
same,MIC50,"[12]; Nakaseomyces glabratus, read-out: MIC 50% inhibition, isolate CG3",8 µg/mL
same,MIC,"[12]; Nakaseomyces glabratus, read-out: MIC 100% inhibition, isolate 05-62",8 µg/mL
same,MIC 100% inhibition,[12]; isolate 05-761,8 µg/mL
same,MIC 100% inhibition,[12]; isolate CG3,8 µg/mL
same,MIC,"[13]; ATCC17978, isolate ATCC 17978",64 µg/mL
same,MIC,[13]; isolate AR-88,64 µg/mL
same,MIC,[13]; isolate AR-273,> 64 µg/mL
"COc1cc(C)c2c(Oc3cccc(C(F)(F)F)c3)c(OC)cc(NC(C)CCCN)c2n1 (stereo not shown) [Tafenoquine, N(4)-[2,6-Dimethoxy-4-methyl-5-[3-(trifluoromethyl)phenoxy]quinolin-8-yl]pentane-1,4-diamine]",fold more potent than primaquine (average 50% inhibitory concentrations),[14],7.1 fold
same,MIC,[6]; [19],16 µg/mL
same,EC50,[15],> 6 µM
same,dose clearing Babesia parasitemia,[16],20 mg/kg
same,EC50,[17],> 6 µM
same,ratio between steady state and single dose concentrations,[18],approximately 3.3
